Measurements from US8916711B2, “Imidazothiazole-chalcone derivatives as potential anticancer agents and process for the preparation thereof” (Council of Scientific and Industrial Research, priority 2009, dated 2014).
Where two headings read alike, the source gives them in different places.

Experiments:
Type in all cases: cell-based
OVCAR-4 = assay: NCI in vitro cytotoxicity (SRB, 48 h), Ovarian panel; details: Homo sapiens; OVCAR-4, Ovarian; 48 h exposure
Colon cancer cell lines = assay: NCI in vitro cytotoxicity, whole panel; details: Homo sapiens; for CC50: read-out: Log10 LC50 (converted)
A549/ATCC = assay: NCI in vitro cytotoxicity (SRB, 48 h), Non-small cell lung panel; details: Homo sapiens, 48 h exposure
CAKI-1 = assay: NCI in vitro cytotoxicity (SRB, 48 h), Renal panel; details: Homo sapiens; CAKI-1, Renal; 48 h exposure
SN12C = assay: NCI in vitro cytotoxicity (SRB, 48 h), Renal panel; details: Homo sapiens, 48 h exposure
MDAMB-435 = assay: NCI in vitro cytotoxicity (SRB, 48 h), Melanoma panel; details: Homo sapiens, MDA-MB-435; MDAMB-435, Melanoma; 48 h exposure
HOP-62 = assay: NCI in vitro cytotoxicity (SRB, 48 h), Non-small cell lung panel; details: Homo sapiens; HOP-62, Non-small cell lung; 48 h exposure
NCI-H522 = assay: as above; details: Homo sapiens, 48 h exposure
HCC-2998 = assay: NCI in vitro cytotoxicity (SRB, 48 h), Colon panel; details: Homo sapiens
OVCAR-8 = assay: NCI in vitro cytotoxicity (SRB, 48 h), Ovarian panel; details: Homo sapiens; OVCAR-8, Ovarian; 48 h exposure
CNS cancer cell lines = assay: NCI in vitro cytotoxicity, whole panel; details: Homo sapiens; for CC50: read-out: Log10 LC50 (converted)
CCRF-CEM = assay: NCI in vitro cytotoxicity (SRB, 48 h), Leukemia panel; details: Homo sapiens, 48 h exposure
DU-145 = assay: NCI in vitro cytotoxicity (SRB, 48 h), Prostate panel; details: Homo sapiens; DU-145, Prostate; 48 h exposure
OVCAR-3 = assay: NCI in vitro cytotoxicity (SRB, 48 h), Ovarian panel; details: Homo sapiens; OVCAR-3, Ovarian; 48 h exposure
UACC-25 = assay: NCI in vitro cytotoxicity (SRB, 48 h), Melanoma panel; details: Homo sapiens; UACC-25, Melanoma; 48 h exposure
[1] = test system: Ovarian cancer cell lines; assay: NCI in vitro cytotoxicity, whole panel; details: Homo sapiens; for CC50: read-out: Log10 LC50 (converted)
K-562 = assay: NCI in vitro cytotoxicity (SRB, 48 h), Leukemia panel; details: Homo sapiens, K562; K-562, Leukemia; 48 h exposure
KM12 = assay: NCI in vitro cytotoxicity (SRB, 48 h), Colon panel; details: Homo sapiens, 48 h exposure
PC-3 = assay: NCI in vitro cytotoxicity (SRB, 48 h), Prostate panel; details: Homo sapiens; PC-3, Prostate; 48 h exposure
BT-549 = assay: NCI in vitro cytotoxicity (SRB, 48 h), Breast panel; details: Homo sapiens; BT-549, Breast; 48 h exposure
ACHN = assay: NCI in vitro cytotoxicity (SRB, 48 h), Renal panel; details: Homo sapiens, 48 h exposure
MALME-3M = assay: NCI in vitro cytotoxicity (SRB, 48 h), Melanoma panel; details: Homo sapiens, 48 h exposure
SNB-75 = assay: NCI in vitro cytotoxicity (SRB, 48 h), CNS panel; details: Homo sapiens; SNB-75, CNS; 48 h exposure
NCI-H226 = assay: NCI in vitro cytotoxicity (SRB, 48 h), Non-small cell lung panel; details: Homo sapiens, 48 h exposure
A498 = assay: NCI in vitro cytotoxicity (SRB, 48 h), Renal panel; details: Homo sapiens, 48 h exposure
HT29 = assay: NCI in vitro cytotoxicity (SRB, 48 h), Colon panel; details: Homo sapiens, HT-29, 48 h exposure
LOX IMVI = assay: NCI in vitro cytotoxicity (SRB, 48 h), Melanoma panel; details: Homo sapiens, 48 h exposure
SF-295 = assay: NCI in vitro cytotoxicity (SRB, 48 h), CNS panel; details: Homo sapiens; SF-295, CNS; 48 h exposure
SW-620 = assay: NCI in vitro cytotoxicity (SRB, 48 h), Colon panel; details: Homo sapiens; SW-620, Colon; 48 h exposure
HOP-92 = assay: NCI in vitro cytotoxicity (SRB, 48 h), Non-small cell lung panel; details: Homo sapiens
[2] = test system: Non-small-cell lung cancer cell lines; assay: NCI in vitro cytotoxicity, whole panel; details: Homo sapiens; for CC50: read-out: Log10 LC50 (converted)
NCI-H322M = assay: NCI in vitro cytotoxicity (SRB, 48 h), Non-small cell lung panel; details: Homo sapiens, 48 h exposure
SK-MEL-28 = assay: NCI in vitro cytotoxicity (SRB, 48 h), Melanoma panel; details: Homo sapiens; SK-MEL-28, Melanoma; 48 h exposure
HCT-15 = assay: NCI in vitro cytotoxicity (SRB, 48 h), Colon panel; details: Homo sapiens; HCT-15, Colon; 48 h exposure
SF-268 = assay: NCI in vitro cytotoxicity (SRB, 48 h), CNS panel; details: Homo sapiens; SF-268, CNS; 48 h exposure
U251 = assay: NCI in vitro cytotoxicity (SRB, 48 h), CNS panel; details: Homo sapiens, U-251, 48 h exposure
T-47D = assay: NCI in vitro cytotoxicity (SRB, 48 h), Breast panel; details: Homo sapiens, T47D, 48 h exposure
MDA-MB-468 = assay: as above; details: Homo sapiens; MDA-MB-468, Breast; 48 h exposure
OVCAR-5 = assay: NCI in vitro cytotoxicity (SRB, 48 h), Ovarian panel; details: Homo sapiens; OVCAR-5, Ovarian; 48 h exposure
[3] = Colon, average of six to eight cell lines, read-out: Log10 GI50 (converted)
[4] = Colon, average of six to eight cell lines
[5] = exposure period of at least 48 hrs, read-out: GI50, range over colon cell lines
[6] = CNS cell, exposure period of at least 48 hrs, read-out: GI50, range over CNS cell lines
[7] = CNS, average of six to eight cell lines, read-out: Log10 GI50 (converted)
[8] = CNS, average of six to eight cell lines
[9] = Ovarian, average of six to eight cell lines, read-out: Log10 GI50 (converted)
[10] = Ovarian, average of six to eight cell lines
[11] = exposure period of at least 48 hrs, read-out: GI50, range over ovarian cell lines
[12] = HOP-92, Non-small cell lung, 48 h exposure
[13] = Non-small-cell lung, average of six to eight cell lines, read-out: Log10 GI50 (converted)
[14] = Non-small-cell lung, average of six to eight cell lines
[15] = exposure period of at least 48 hrs, read-out: GI50, range over lung cell lines

COc1cc(C(=O)/C=C/c2c(C(F)(F)F)nc3sccn23)cc(OC)c1OC [Compound 7f, (E)-3-(6-(trifluoromethyl)imidazo[2,1-b]thiazol-5-yl)-1-(3,4,5-trimethoxyphenyl)prop-2-en-1-one]
GI50 (OVCAR-4): 3050 nM
GI50 (Colon cancer cell lines; [3]): 1620 nM
CC50 (Colon cancer cell lines; [4]): 8510 nM
GI50 (Colon cancer cell lines; [5]): 1010 to 1940 nM
GI50 (A549/ATCC): 3440 nM
GI50 (CAKI-1): 1760 nM
GI50 (SN12C): 1560 nM
GI50 (MDAMB-435): 1610 nM
GI50 (HOP-62): 1930 nM
GI50 (NCI-H522): 2030 nM
GI50 (HCC-2998; HCC-2998, Colon, 48 h exposure): 1710 nM
GI50 (HCC-2998; HCC-2998, colon): 1710 nM
GI50 (OVCAR-8): 3080 nM
GI50 (CNS cancer cell lines; [6]): 1380 to 2670 nM
GI50 (CNS cancer cell lines; [7]): 1910 nM
CC50 (CNS cancer cell lines; [8]): 12600 nM
GI50 (CCRF-CEM): 1240 nM
GI50 (DU-145): 1410 nM
GI50 (OVCAR-3): 1860 nM
GI50 (UACC-25): 1900 nM
GI50 [1, 9]: 2690 nM
CC50 [1, 10]: 57500 nM
GI50 [1, 11]: 1860 to 3080 nM
GI50 (K-562): 1740 nM
GI50 (KM12): 1470 nM
GI50 (PC-3): 2660 nM
GI50 (BT-549): 2260 nM
GI50 (ACHN): 1820 nM
GI50 (MALME-3M): 1590 nM
GI50 (SNB-75): 1870 nM
GI50 (NCI-H226): 2170 nM
GI50 (A498): 1890 nM
GI50 (HT29): 1830 nM
GI50 (LOX IMVI): 1360 nM
GI50 (SF-295): 2580 nM
GI50 (SW-620): 1670 nM
GI50 (HOP-92; [12]): 7000 nM
GI50 [2, 13]: 2450 nM
CC50 [2, 14]: 26900 nM
GI50 [2, 15]: 1650 to 7000 nM
GI50 (NCI-H322M): 1960 nM
GI50 (SK-MEL-28): 1690 nM
GI50 (HCT-15): 1800 nM
GI50 (SF-268): 1740 nM
GI50 (U251): 1380 nM
GI50 (T-47D): 2120 nM

COc1ccc(C(=O)/C=C/c2c(C(F)(F)F)nc3sccn23)cc1OC [Compound 8f, (E)-1-(3,4-dimethoxyphenyl)-3-(6-(trifluoromethyl)imidazo[2,1-b]thiazol-5-yl) prop-2-en-1-one]
GI50 (OVCAR-4): 4080 nM
GI50 (Colon cancer cell lines; [3]): 2450 nM
CC50 (Colon cancer cell lines; [4]): ≥ 100000 nM
GI50 (Colon cancer cell lines; [5]): 1400 to 4560 nM
GI50 (A549/ATCC): 4650 nM
GI50 (CAKI-1): 2460 nM
GI50 (SN12C): 2980 nM
GI50 (MDAMB-435): 1850 nM
GI50 (HOP-62): 6000 nM
GI50 (NCI-H522): 2910 nM
GI50 (HCC-2998; HCC-2998, Colon, 48 h exposure): 5070 nM
GI50 (OVCAR-8): 2400 nM
GI50 (MDA-MB-468): 6180 nM
GI50 (CNS cancer cell lines; [6]): 1870 to 6870 nM
GI50 (CNS cancer cell lines; [7]): 3390 nM
CC50 (CNS cancer cell lines; [8]): ≥ 100000 nM
GI50 (CCRF-CEM): 2330 nM
GI50 (DU-145): 1640 nM
GI50 (OVCAR-3): 2120 nM
GI50 (UACC-25): 7770 nM
GI50 [1, 9]: 2950 nM
CC50 [1, 10]: 100000 nM
GI50 [1, 11]: 1880 to 4180 nM
GI50 (OVCAR-5): 4180 nM
GI50 (K-562): 2250 nM
GI50 (KM12): 1970 nM
GI50 (PC-3): 5390 nM
GI50 (BT-549): 3250 nM
GI50 (ACHN): 5100 nM
GI50 (MALME-3M): 5920 nM
GI50 (SNB-75): 6870 nM
GI50 (NCI-H226): 6950 nM
GI50 (A498): 7580 nM
GI50 (HT29): 2010 nM
GI50 (LOX IMVI): 600 nM
GI50 (SF-295): 3140 nM
GI50 (SW-620): 1490 nM
GI50 (HOP-92; [12]): 5800 nM
GI50 [2, 13]: 3980 nM
CC50 [2, 14]: ≥ 100000 nM
GI50 [2, 15]: 1940 to 6950 nM
GI50 (NCI-H322M): 3170 nM
GI50 (SK-MEL-28): 8480 nM
GI50 (HCT-15): 2540 nM
GI50 (SF-268): 3440 nM
GI50 (U251): 1870 nM
GI50 (T-47D): 2900 nM

COc1cc(C(=O)/C=C/c2c(-c3ccc(F)cc3)nc3sc(C)cn23)cc(OC)c1OC [Compound 19e, (E)-3-(6-(4-fluorophenyl)-2-methylimidazo[2,1-b]thiazol-5-yl)-1-(3,4,5-trimethoxyphenyl)prop-2-en-1-one]
GI50 (OVCAR-4): 2280 nM
GI50 (Colon cancer cell lines; [3]): 5010 nM
CC50 (Colon cancer cell lines; [4]): ≥ 100000 nM
GI50 (Colon cancer cell lines; [5]): 2920 to 9930 nM
GI50 (A549/ATCC): 9340 nM
GI50 (CAKI-1): 1780 nM
GI50 (SN12C): 9010 nM
GI50 (MDAMB-435): 1750 nM
GI50 (HOP-62): 85100 nM
GI50 (NCI-H522): 2960 nM
GI50 (HCC-2998; HCC-2998, Colon, 48 h exposure): 9930 nM
GI50 (OVCAR-8): 4940 nM
GI50 (MDA-MB-468): 2380 nM
GI50 (CNS cancer cell lines; [6]): 2330 to 87800 nM
GI50 (CNS cancer cell lines; [7]): 12600 nM
CC50 (CNS cancer cell lines; [8]): ≥ 100000 nM
GI50 (CCRF-CEM): 7190 nM
GI50 (DU-145): 7520 nM
GI50 (OVCAR-3): 3660 nM
GI50 (UACC-25): 4750 nM
GI50 [1, 9]: 6760 nM
CC50 [1, 10]: 100000 nM
GI50 [1, 11]: ≥ 2280 nM
GI50 (OVCAR-5): > 100000 nM
GI50 (K-562): 5460 nM
GI50 (KM12): 3630 nM
GI50 (PC-3): 2410 nM
GI50 (BT-549): 3750 nM
GI50 (ACHN): 5830 nM
GI50 (MALME-3M): 2690 nM
GI50 (SNB-75): 50100 nM
GI50 (NCI-H226): 9580 nM
GI50 (HT29): 6960 nM
GI50 (LOX IMVI): 2500 nM
GI50 (SF-295): 2330 nM
GI50 (SW-620): 5340 nM
GI50 (HOP-92; [12]): 150 nM
GI50 (HOP-92; HOP-92, non-small cell lung): 150 nM
GI50 [2, 13]: 4470 nM
CC50 [2, 14]: ≥ 100000 nM
GI50 [2, 15]: 150 to 85100 nM
GI50 (NCI-H322M): 8650 nM
GI50 (SK-MEL-28): 7070 nM
GI50 (HCT-15): 3760 nM
GI50 (SF-268): 15200 nM
GI50 (U251): 4070 nM
GI50 (T-47D): 2930 nM
